Assay results taken from patent US20230010108.
Where two headings read alike, the source gives them in different places.

Conditions: ester bond, 2 steps

## COCCOCCOCCOCCOCCOCCOCCOCCOCCOCC(=O)NCCCC[C@@H]1NC(=O)[C@@H](NC(=O)CCCN2C(=O)C=CC2=O)[C@@H](NC(=O)CCCN2C(=O)C=CC2=O)C(=O)N[C@@H](CCCCNC(=O)COCCOCCOCCOCCOCCOCCOCCOCCOCCOC)C(=O)NCCCC(=O)Nc2cc(C[C@@H](C[C@H](C)C(=O)OC(C)(C)C)NC(=O)OC(C)(C)C)ccc2OC(=O)CCCNC1=O
From (7S,10R,11S,14S)-10,11-bis(4-(2,5-dioxo-2,5-dihydro-1H-pyrrol-1-yl)butanamido)-6,9,12,15-tetraoxo-7,14-bis(31-oxo-2,5,8,11,14,17,20,23,26,29-decaoxa-32-azahexatriacontan-36-yl)-5,8,13,16-tetraazaicosane-1,20-dioic acid + (2S,4R)-tert-butyl 5-(3-amino-4-hydroxyphenyl)-4-((tert-butoxycarbonyl)amino)-2-methylpentanoate?, 24-membered ring
  ring closure, isolated yield: 52%

## CC(C)[C@@H]1NC(=O)[C@H](C)NC(=O)CCCNC(=O)[C@H](NC(=O)CN2C(=O)C=CC2=O)[C@H](NC(=O)CN2C(=O)C=CC2=O)C(=O)NCCCC(=O)Oc2ccc(C[C@@H](C[C@H](C)C(=O)OC(C)(C)C)NC(=O)OC(C)(C)C)cc2NC1=O
From (2S,4R)-tert-butyl 5-(3-((S)-2-((S)-2-aminopropanamido)-3-methylbutanamido)-4-hydroxyphenyl)-4-((tert-butoxycarbonyl)amino)-2-methylpentanoate + 4,4′-(((2R,3S)-2,3-bis(2-(2,5-dioxo-2,5-dihydro-1H-pyrrol-1-yl)acetamido)succinyl)bis(azanediyl))-dibutanoic acid?, 24-membered ring
  ring closure, isolated yield: 62%

## C[C@@H](C[C@H](Cc1ccc2c(c1)NC(=O)CCCNC(=O)[C@H](CCCCNC(=O)CCOCCOCCOCCC(=O)NCCOCCOCCC(=O)NCCOCCOCCC(=O)OC(C)(C)C)NC(=O)CCCNC(=O)[C@H](NC(=O)CCN1C(=O)C=CC1=O)[C@H](NC(=O)CCN1C(=O)C=CC1=O)C(=O)NCCCC(=O)O2)NC(=O)OC(C)(C)C)C(=O)OC(C)(C)C
From C[C@@H](C[C@H](Cc1ccc(O)c(NC(=O)CCCNC(=O)[C@H](CCCCNC(=O)CCOCCOCCOCCC(=O)NCCOCCOCCC(=O)NCCOCCOCCC(=O)OC(C)(C)C)NC(=O)CCCNC(=O)[C@@H](NC(=O)CCN2C(=O)C=CC2=O)[C@@H](NC(=O)CCN2C(=O)C=CC2=O)C(=O)NCCCC(=O)O)c1)NC(=O)OC(C)(C)C)C(=O)OC(C)(C)C, 26-membered ring
  ring closure, isolated yield: 39%

## COC(=O)[C@H](Cc1ccc2c(c1)NC(=O)CCCNC(=O)C(NC(=O)CCN1C(=O)C=CC1=O)C(NC(=O)CCN1C(=O)C=CC1=O)C(=O)NCCCC(=O)O2)NC(=O)OC(C)(C)C (stereo partly shown)
From 4,4′-((2,3-bis(2-(2,5-dioxo-2,5-dihydro-1H-pyrrol-1-yl)acetamido)-succinyl)bis(azanediyl))dibutanoic acid + (S)-methyl 3-(3-amino-4-hydroxyphenyl)-2-(tert-butoxycarbonylamino)propanoate?, 18-membered ring
  ring closure, isolated yield: 68%
